The results in this text go back to paper PMC6095594, “Pre-clinical evaluation of quinoxaline-derived chalcones in tuberculosis” (PLoS ONE, 2018).

Converted amounts (≈) assume the structure as drawn. “And” between values parts separate entries of the source, which are not always exact repeats. Equal entries are not always repeated. Where two headings read alike, the source gives them in different places. Where only a bound is given, the exact number is not on record here.

Broadly, the IC50 is the midpoint of a concentration-inhibition curve.

The subject of data set [1] is M. tuberculosis pNIP::control. Kind of data set: microbe, parasite or virus in culture. Format: cell-based. The note with it: Mycobacterium tuberculosis; pNIP::control (empty vector).
Another data set deals with CYP3A4/5. Kind of data set: in vitro. The following applies: human, microsomes, pH 7.4.
The next data set deals with M. tuberculosis H37Rv. Kind of data set: Checkerboard assay, two-drug combination with REMA readout. Format: cell-based, Mycobacterium tuberculosis. The following applies: for MIC Combined: checkerboard, three independent experiments.
Data set [2] concerns mycolic acids synthesis in M. tuberculosis cells. Format: cell-based. The note with it: N9 at 10 and 25 μg/mL, 18 hours.
The next data set concerns the target CYP2E1 (Homo sapiens, UniProt P05181). The note with it: human liver microsomes, CYP2E1, N9 0.01–100 μmol L^-1. Background: Liver microsomes are a subcellular fraction often used to study metabolism.
The next data set deals with CYP1A2 (Homo sapiens, UniProt P05177). Kind of data set: biochemical.
Data set [3] relates to M. tuberculosis H37Rv strain. Kind of data set: microbe, parasite or virus in culture. The data set is classed as cell-based.

Chain of CYP2E1 (P05181 whole entry): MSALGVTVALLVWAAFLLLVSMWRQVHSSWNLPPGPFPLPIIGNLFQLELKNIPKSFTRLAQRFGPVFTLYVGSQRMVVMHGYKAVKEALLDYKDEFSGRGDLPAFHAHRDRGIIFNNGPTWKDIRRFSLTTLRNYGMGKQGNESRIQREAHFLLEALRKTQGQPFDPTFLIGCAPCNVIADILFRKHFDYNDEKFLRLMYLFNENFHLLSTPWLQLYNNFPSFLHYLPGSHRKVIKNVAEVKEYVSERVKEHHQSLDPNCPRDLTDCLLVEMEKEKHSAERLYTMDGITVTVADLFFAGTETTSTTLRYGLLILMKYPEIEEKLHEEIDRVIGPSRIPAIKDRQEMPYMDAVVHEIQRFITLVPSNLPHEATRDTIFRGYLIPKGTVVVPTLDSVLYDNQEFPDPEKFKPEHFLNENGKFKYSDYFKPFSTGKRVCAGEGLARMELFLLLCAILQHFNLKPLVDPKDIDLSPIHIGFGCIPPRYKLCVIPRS
Chain of CYP1A2 (P05177 whole entry): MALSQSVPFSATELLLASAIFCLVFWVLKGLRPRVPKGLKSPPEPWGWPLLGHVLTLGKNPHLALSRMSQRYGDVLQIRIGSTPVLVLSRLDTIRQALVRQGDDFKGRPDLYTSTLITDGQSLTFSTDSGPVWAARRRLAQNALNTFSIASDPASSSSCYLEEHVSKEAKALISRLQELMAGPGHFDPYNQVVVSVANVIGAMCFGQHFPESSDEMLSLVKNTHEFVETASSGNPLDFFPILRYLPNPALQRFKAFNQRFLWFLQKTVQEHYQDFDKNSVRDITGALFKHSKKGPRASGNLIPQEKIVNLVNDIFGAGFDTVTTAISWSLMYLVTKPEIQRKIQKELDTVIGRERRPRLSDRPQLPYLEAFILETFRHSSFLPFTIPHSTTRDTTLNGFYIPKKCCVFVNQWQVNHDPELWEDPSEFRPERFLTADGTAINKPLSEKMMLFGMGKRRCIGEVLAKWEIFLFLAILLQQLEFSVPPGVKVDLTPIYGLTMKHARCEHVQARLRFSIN

As for `COc1ccc(OC)c(C(=O)/C=C/c2ccc3nccnc3c2)c1` [N9], the MIC in data set [1] is 3.13 µg/mL (≈ 9.77 µM); in data set [3] (H37Rv), 3.13 µg/mL (≈ 9.77 µM); in data set [3] (Mycobacterium tuberculosis, H37RV, read-out: MIC) it was 3.13 to 12.5 µg/mL (≈ 9.77 to 39 µM); in data set [3] (Mycobacterium tuberculosis, read-out: MICs, M. tuberculosis H37Rv strain, and clinical isolates (summary)), 1.56 to 3.13 µg/mL (≈ 4.87 to 9.79 µM). The IC50 was above 100000 nM in the data set with CYP3A4/5 and 2000 nM against CYP1A2. Also, the “FICI (fractional inhibitory concentration index)” value in the data set with M. tuberculosis H37Rv (N9 combined with MFX) was “below 0.5”. In addition, the “MIC Combined” value in the data set with M. tuberculosis H37Rv (combination N9 + EMB) was 0.78 µg/mL; with M. tuberculosis H37Rv (combination N9 + INH), 0.78 µg/mL; in the data set on M. tuberculosis H37Rv (combination N9 + RIF), 0.78 µg/mL and 1.56 µg/mL. Besides, the “Effect on synthesis of mycolic acids and non-hydroxylated fatty acids” value in data set [2] is on record as “did not inhibit”. Further, at CYP2E1, the “percentage of remaining enzyme activity” value is reported as “approximately 100%”.
